The values below come from patent publication US4633014A, “Substituted 3-hydrazinopropionates” (priority 1983, dated 1986).

One series in a line: in vivo. The note with it: mouse, in vivo, ip. A digest of the protocol: (§1)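 Acute toxicity in white mice of 20-25 g, with compounds given intraperitoneally as aqueous solutions or Twin-80 suspensions. Animals observed for 10 days.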
The subject of the next series is white mice. Nature of the series: in vivo. In short, it runs like this: as §1
In series [1] the test system is arrhythmia induced by an intravenous administration of calcium chloride. Kind of series: Antiarrhythmic activity on a model of arrhythmia induced by intravenous calcium chloride (antagonism to calcium) in mice. The note with it: white mice, 20-40 minutes before. The format is in vivo. A digest of the protocol:
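Urethane-anaesthetised (1,200 mg/kg i.p.) white mice of both sexes, 18-25 g, with lead II ECG; 2% CaCl2 infused into the tail vein at 0.01 ml per 2 sec. Doses of CaCl2 producing arrhythmia and heart arrest were determined. Test compounds were given i.p. 20-40 min before infusion.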

For series [2] the following is noted: currently employed in medicine; cited from earlier work.
Where [3] appears, read: white mice, intraperitoneal, relative to quinidine.

Structures can show the parent of a compound that is named as a salt.

`CCCCCC(=O)N(CCC(N)=O)N(C)C` [I-49, 3-(2,2-dimethyl-1-hexanoylhydrazino)propionamide]: the LD50 at 240 h in “in vivo” was 960 mg/kg. The “Relative toxisity to quinidine” value with white mice (mouse, in vivo, ip, 14400 min) is given as 6,1. In addition, in series [1] (intraperitoneal dose 5 mg/kg), the “Dose of calcium chloride causing arrythmia in animals under experiment” value was 101,3 mg/kg and the “Dose of calcium chloride causing death in animals under experiment” value (“Dose of calcium chloride causing death” below) is given as 120,5 mg/kg. In addition, in series [1] (intraperitoneal dose 15 mg/kg), the “Dose of calcium chloride causing arrythmia in animals under experiment” value is recorded as 108,6 mg/kg and the “Dose of calcium chloride causing death” value is 136,8 mg/kg.

Consider `CCCCCCCCCCCCCCCCCC(=O)N(CCC(N)=O)N(C)C` [I-50, 3-(2,2-dimethyl-1-octadecanoylhydrazino)propionamide], for which, in the series “in vivo”, the LD50 at 240 h was above 3000 mg/kg. Also, the “Relative toxisity to quinidine” value with white mice (mouse, in vivo, ip, 14400 min) is reported as > 19,2. The entries for the “Dose of calcium chloride causing arrythmia in animals under experiment” value in series [1] (intraperitoneal dose 5 mg/kg) and in series [1] (intraperitoneal dose 15 mg/kg) were 102,4 mg/kg and 118,6 mg/kg, respectively. Besides, the entries for the “Dose of calcium chloride causing death” value in series [1] (intraperitoneal dose 5 mg/kg) and in series [1] (intraperitoneal dose 15 mg/kg) were 118,0 mg/kg and 142,5 mg/kg, respectively.

`CN(C)N(CCC(N)=O)C(=O)c1ccccc1` [I-51, 3-(2,2-dimethyl-1-benzoylhydrazino)propionamide] yielded an LD50 at 240 h in “in vivo” of 3150 mg/kg. In the series with white mice (mouse, in vivo, ip, 14400 min), the “Relative toxisity to quinidine” value is 20,1. For the same compound, in series [1] (intraperitoneal dose 5 mg/kg), the “Dose of calcium chloride causing arrythmia in animals under experiment” value was 88,7 mg/kg and the “Dose of calcium chloride causing death” value is 105,5 mg/kg. In series [1] (intraperitoneal dose 15 mg/kg), the “Dose of calcium chloride causing arrythmia in animals under experiment” value is recorded as 93,5 mg/kg and the “Dose of calcium chloride causing death” value is given as 112,0 mg/kg.

Turning to `CN(C)N(CCC(N)=O)C(=O)CCO` [I-52, 3-(2,2-dimethyl-1-γ-hydroxypropanoylhydrazino)propionamide], the 50% lethal dose (LD50) at 240 h in “in vivo” is above 3000 mg/kg. Also, the “Relative toxisity to quinidine” value with white mice (mouse, in vivo, ip, 14400 min) is given as > 19,2. Moreover, in series [1] (intraperitoneal dose 5 mg/kg), the “Dose of calcium chloride causing arrythmia in animals under experiment” value amounted to 93 mg/kg and the “Dose of calcium chloride causing death” value is reported as 112,0 mg/kg. In addition, in series [1] (intraperitoneal dose 15 mg/kg), the “Dose of calcium chloride causing arrythmia in animals under experiment” value is on record as 97,6 mg/kg and the “Dose of calcium chloride causing death” value is reported as 123,6 mg/kg.

The compound `COC(=O)N(CCC(N)=O)N(C)C` [I-53, 3-(2,2-dimethyl-1methoxycarbonylhydrazino)propionamide] registered an LD50 at 240 h in the series “in vivo” of 1880 mg/kg. Also, the “Relative toxisity to quinidine” value in the series with white mice (setting [3]) is 12,0. Further, the “Dose of calcium chloride causing arrythmia in animals under experiment” value in series [1] (intraperitoneal dose 5 mg/kg) is on record as 98,5 mg/kg; in series [1] (intraperitoneal dose 15 mg/kg), 121,0 mg/kg. The “Dose of calcium chloride causing death” value in series [1] (intraperitoneal dose 5 mg/kg) was 132,0 mg/kg; in series [1] (intraperitoneal dose 15 mg/kg), 138,5 mg/kg.

Take `CN(C)N(CCC#N)C(=O)c1ccccc1` [I-54, 3-(2,2-dimethyl-1-benzoylhydrazino)propionitrile]: the LD50 at 240 h in “in vivo” amounted to 1030 mg/kg. Further, in the series on white mice (mouse, in vivo, ip, 14400 min), the “Relative toxisity to quinidine” value is 6,6. For the same compound, in series [1] (intraperitoneal dose 5 mg/kg), the “Dose of calcium chloride causing arrythmia in animals under experiment” value is recorded as 108,3 mg/kg and the “Dose of calcium chloride causing death” value was 130,0 mg/kg. Besides, in series [1] (intraperitoneal dose 15 mg/kg), the “Dose of calcium chloride causing arrythmia in animals under experiment” value is 102,5 mg/kg and the “Dose of calcium chloride causing death” value is reported as 133,0 mg/kg.

As for `CNC(=O)N(C(CC(=O)OC)C(=O)OC)N(C)C` (stereo not drawn) [I-55], the LD50 at 240 h in “in vivo” was found to be 2300 mg/kg. Further, the “Relative toxisity to quinidine” value in the series on white mice (mouse, in vivo, ip, 14400 min) is recorded as 14,7. Further, the results for the “Dose of calcium chloride causing arrythmia in animals under experiment” value in series [1] (intraperitoneal dose 5 mg/kg) and in series [1] (intraperitoneal dose 15 mg/kg) were 88,7 mg/kg and 111,5 mg/kg, respectively. The “Dose of calcium chloride causing death” value is reported as 112,5 mg/kg in series [1] (intraperitoneal dose 5 mg/kg) and 135,0 mg/kg in series [1] (intraperitoneal dose 15 mg/kg).

Take `COC(=O)CC(C(=O)OC)N(C(=O)Nc1ccccc1)N(C)C` (stereo not drawn) [I-56]: the LD50 at 240 h in the series “in vivo” came out at 3200 mg/kg. Also, the “Relative toxisity to quinidine” value in the series on white mice (mouse, in vivo, ip, 14400 min) is 20,5. In series [1] (intraperitoneal dose 5 mg/kg), the “Dose of calcium chloride causing arrythmia in animals under experiment” value was 92,4 mg/kg and the “Dose of calcium chloride causing death” value was 108,5 mg/kg. In series [1] (intraperitoneal dose 15 mg/kg), the “Dose of calcium chloride causing arrythmia in animals under experiment” value is 102,0 mg/kg and the “Dose of calcium chloride causing death” value is recorded as 128,0 mg/kg.

`COC(=O)CC(C(=O)OC)N(C(=O)NCCCCCCNC(=O)N(C(CC(=O)OC)C(=O)OC)N(C)C)N(C)C` (stereo not drawn) [I-57, 3-(2,2-dimethyl-1-/ε-(2-dimethylamino-2-dimethylsuccinato-2'-ylureido-1-yl)hexylcarbamoyl/hydrazino)-2-methoxycarbonylmethylpropionate]: the LD50 at 240 h in “in vivo” is above 3000 mg/kg. Moreover, the “Relative toxisity to quinidine” value in the series on white mice (mouse, in vivo, ip, 14400 min) is reported as > 19,2. Moreover, in series [1] (intraperitoneal dose 5 mg/kg), the “Dose of calcium chloride causing arrythmia in animals under experiment” value was 103,5 mg/kg and the “Dose of calcium chloride causing death” value is given as 115,0 mg/kg. Also, in series [1] (intraperitoneal dose 15 mg/kg), the “Dose of calcium chloride causing arrythmia in animals under experiment” value is 132,6 mg/kg and the “Dose of calcium chloride causing death” value is recorded as 150,0 mg/kg.

Consider `COC(=O)CC(C(=O)OC)N(C(=O)c1ccccc1)N(C)C` (stereo not drawn) [I-58, 3-(2,2-dimethyl-1-benzoylhydrazino)-3-methoxycarbonyl-methylpropionate], for which the LD50 at 240 h in “in vivo” was above 3000 mg/kg. For the same compound, the “Relative toxisity to quinidine” value in the series with white mice (mouse, in vivo, ip, 14400 min) is on record as > 19,2. Besides, in series [1] (intraperitoneal dose 5 mg/kg), the “Dose of calcium chloride causing arrythmia in animals under experiment” value was 97,0 mg/kg and the “Dose of calcium chloride causing death” value is 112,0 mg/kg. In series [1] (intraperitoneal dose 15 mg/kg), the “Dose of calcium chloride causing arrythmia in animals under experiment” value is reported as 100,5 mg/kg and the “Dose of calcium chloride causing death” value is listed as 118,5 mg/kg.

The compound `CNC(=S)N(CCC(=O)O)N(C)C` [I-59, Sodium salt of 3-(2,2-dimethyl-1-methylthiocarbamoylhydrazino)propionate] registered an LD50 at 240 h in the series “in vivo” of 1800 mg/kg. In the series with white mice (mouse, in vivo, ip, 14400 min), the “Relative toxisity to quinidine” value was 11,5. In series [1] (intraperitoneal dose 5 mg/kg), the “Dose of calcium chloride causing arrythmia in animals under experiment” value is on record as 93,4 mg/kg and the “Dose of calcium chloride causing death” value is reported as 108,6 mg/kg. Also, in series [1] (intraperitoneal dose 15 mg/kg), the “Dose of calcium chloride causing arrythmia in animals under experiment” value is listed as 112,5 mg/kg and the “Dose of calcium chloride causing death” value was 130,0 mg/kg.

`CCCCCCCCOC(=O)CCN(C(=S)Nc1ccccc1)N(C)C` [I-60, 3-(2,2-dimethyl-1-phenylthiocarbamoylhydrazino)octylpropionate] yielded an LD50 at 240 h in the series “in vivo” of 2420 mg/kg. In the series on white mice (mouse, in vivo, ip, 14400 min), the “Relative toxisity to quinidine” value is listed as 15,5. Moreover, in series [1] (intraperitoneal dose 5 mg/kg), the “Dose of calcium chloride causing arrythmia in animals under experiment” value is reported as 90,8 mg/kg and the “Dose of calcium chloride causing death” value is given as 132,5 mg/kg. Also, in series [1] (intraperitoneal dose 15 mg/kg), the “Dose of calcium chloride causing arrythmia in animals under experiment” value is 107,5 mg/kg and the “Dose of calcium chloride causing death” value is on record as 130,8 mg/kg.

`CN(C)N(CCC#N)C(=O)Nc1ccccc1` [I-61, 3-(2,2-dimethyl-1-phenylcarbamoylhydrazino)propionitrile] came in with an LD50 at 240 h in the series “in vivo” of 1250 mg/kg. Besides, the “Relative toxisity to quinidine” value with white mice (mouse, in vivo, ip, 14400 min) is reported as 8,0. In addition, in series [1] (intraperitoneal dose 5 mg/kg), the “Dose of calcium chloride causing arrythmia in animals under experiment” value is given as 105,0 mg/kg and the “Dose of calcium chloride causing death” value is reported as 128,8 mg/kg. Also, in series [1] (intraperitoneal dose 15 mg/kg), the “Dose of calcium chloride causing arrythmia in animals under experiment” value was 102,6 mg/kg and the “Dose of calcium chloride causing death” value is on record as 130,0 mg/kg.

Compound `CCC(=O)N(CCC#N)N(C)C` [I-62, 3-(2,2-dimethyl-1-propionylhydrazino)-propionitrile] came in with an LD50 at 240 h in “in vivo” of 930 mg/kg. For the same compound, the “Relative toxisity to quinidine” value with white mice (setting [3]) is reported as 5,9. For the same compound, the “Dose of calcium chloride causing arrythmia in animals under experiment” value was 96,5 mg/kg in series [1] (intraperitoneal dose 5 mg/kg) and 98,7 mg/kg in series [1] (intraperitoneal dose 15 mg/kg). Moreover, the results for the “Dose of calcium chloride causing death” value in series [1] (intraperitoneal dose 5 mg/kg) and in series [1] (intraperitoneal dose 15 mg/kg) were 120,5 mg/kg and 118,5 mg/kg, respectively.

`CN(C)N(CCC#N)C(=O)c1ccccc1F` [I-63, 3-(2,2-dimethyl-1-2'-fluorobenzoylhydrazino)propionitrile] came in with an LD50 at 240 h in the series “in vivo” of 1850 mg/kg. Moreover, in the series with white mice (mouse, in vivo, ip, 14400 min), the “Relative toxisity to quinidine” value is 11,8. Also, in series [1] (intraperitoneal dose 5 mg/kg), the “Dose of calcium chloride causing arrythmia in animals under experiment” value is 101,5 mg/kg and the “Dose of calcium chloride causing death” value was 117,3 mg/kg. Moreover, in series [1] (intraperitoneal dose 15 mg/kg), the “Dose of calcium chloride causing arrythmia in animals under experiment” value is 112,3 mg/kg and the “Dose of calcium chloride causing death” value is 128,0 mg/kg.

In the series “in vivo”, `CN(C)N(CCC(=O)O)C(=O)Nc1ccccc1` [I-64, Potassium salt of 3-(2,2-dimethyl-1-phenylcarbamoylhydrazino)-methylpropionate] returned an LD50 at 240 h of 1750 mg/kg. Also, the “Relative toxisity to quinidine” value in the series with white mice (mouse, in vivo, ip, 14400 min) is 11,2. Also, in series [1] (intraperitoneal dose 5 mg/kg), the “Dose of calcium chloride causing arrythmia in animals under experiment” value stood at 98 mg/kg and the “Dose of calcium chloride causing death” value was determined as 147 mg/kg. In series [1] (intraperitoneal dose 15 mg/kg), the “Dose of calcium chloride causing arrythmia in animals under experiment” value is listed as 141,7 mg/kg and the “Dose of calcium chloride causing death” value is 163 mg/kg.

With `CCN(CC)CCNC(=O)c1ccc(N)cc1` [Procaineamide, procaine amide, reference compound], in the series “in vivo”, the 50% lethal dose (LD50) at 240 h amounted to 290 mg/kg. Also, in series [1] (intraperitoneal dose 10 mg/kg), the “Dose of calcium chloride causing arrythmia in animals under experiment” value was 116,0 mg/kg and the “Dose of calcium chloride causing death” value is on record as 120,0 mg/kg. Also, in series [1] (intraperitoneal dose 30 mg/kg), the “Dose of calcium chloride causing arrythmia in animals under experiment” value was 127,0 mg/kg and the “Dose of calcium chloride causing death” value was 138,0 mg/kg. The “acute toxicity (in words, background)” value in series [2] is recorded as “high acute toxicity”.

By LD50 is commonly meant the dose expected to kill half of the subjects tested. The low end stands for a more toxic substance, the high end for a less toxic substance.
